SMILES strings stand for the structures.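 Cultured in 96-well plates, cells were exposed to test compound for 48 hours across five concentrations. The concentration for full growth arrest is given as TGI.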

These results are taken from PubChem BioAssay (NCI).

Test systems include SK-OV-3 ovarian; SK-MEL-28 melanoma; SNB-19 CNS; HCC-2998 colon; OVCAR-8 ovarian; MCF7 breast; MDA-MB-435; A498 renal; OVCAR-3 ovarian; A549 NSCLC.
Assay in all cases: growth of human tumour cells (NCI), 48 h

As to `CC(C)(C)CC(C)(C)c1cc(O)c(O)c(CN2CCCCC2)c1`, the TGI in the assay on SK-OV-3 ovarian came out at 34.8 µM; in the assay with SK-MEL-28 melanoma, 32.8 µM; in the assay with SNB-19 CNS, 28.8 µM; in the assay on HCC-2998 colon, 22.4 µM; with OVCAR-8 ovarian it was 33.1 µM; in the assay with MCF7 breast, 25.1 µM. In addition, the TGI with MDA-MB-435 came out at 37.1 µM; in the assay with A498 renal, 27.3 µM; with OVCAR-3 ovarian, 28 µM; in the assay on A549 NSCLC, 30.8 µM.
For `CC(C)/C(Cl)=N\OC(NC(=O)P(=O)(c1ccccc1)c1ccccc1)(C(F)(F)F)C(F)(F)F`, the TGI in the assay with SK-OV-3 ovarian is above 100 µM; with SK-MEL-28 melanoma, 28.2 µM; in the assay on SNB-19 CNS it was 35.3 µM; with HCC-2998 colon, 33.4 µM; in the assay with OVCAR-8 ovarian, 32 µM; in the assay with MCF7 breast, 34 µM. Besides, the TGI with MDA-MB-435 was determined as 30.6 µM; in the assay on A498 renal, 28.6 µM; in the assay on OVCAR-3 ovarian it was 18.4 µM; in the assay with A549 NSCLC, 42.8 µM.
In the case of `CC1(C)CC(=O)C2(CC(CSc3ccccc3)C(CS(=O)(=O)c3ccccc3)C2)C(=O)C1` (stereo not given), the TGI in the assay on SK-OV-3 ovarian, with SK-MEL-28 melanoma, in the assay on SNB-19 CNS, in the assay with HCC-2998 colon, in the assay with OVCAR-8 ovarian and in the assay on MCF7 breast was above 100 µM in each case. Besides, the TGI with MDA-MB-435, in the assay with A498 renal, in the assay with OVCAR-3 ovarian and in the assay on A549 NSCLC was above 100 µM each time.
Turning to `CN(C)CCn1c(CO)nc2c1c(=O)n(C)c(=O)n2C`, the TGI in the assay on SK-OV-3 ovarian, with SK-MEL-28 melanoma, in the assay with SNB-19 CNS, with HCC-2998 colon, with OVCAR-8 ovarian and in the assay on MCF7 breast was above 100 µM each time. Also, the TGI in the assay with MDA-MB-435, with A498 renal, with OVCAR-3 ovarian and in the assay with A549 NSCLC was above 100 µM in each case.
Turning to `C=CCOn1c(C=C)nc2ccc(C)cc21`, the TGI was above 100 µM with SK-OV-3 ovarian; 38 µM in the assay on SK-MEL-28 melanoma; 46 µM with SNB-19 CNS; 33 µM with HCC-2998 colon; above 100 µM with OVCAR-8 ovarian; 24.9 µM in the assay on MCF7 breast. Besides, the TGI was determined as 44.5 µM in the assay with MDA-MB-435, 43.6 µM in the assay with A498 renal, 40.9 µM in the assay with OVCAR-3 ovarian and 68.5 µM in the assay with A549 NSCLC.
For `O=c1[nH]n(Cc2ccccc2)c2ccc([N+](=O)[O-])cc12`, the TGI with SK-OV-3 ovarian, in the assay with SK-MEL-28 melanoma, in the assay with SNB-19 CNS, in the assay with HCC-2998 colon, with OVCAR-8 ovarian and with MCF7 breast was above 100 µM in each case. In addition, the TGI is 85.3 µM in the assay on MDA-MB-435, above 100 µM in the assay on A498 renal, above 100 µM in the assay on OVCAR-3 ovarian and above 100 µM in the assay with A549 NSCLC.
`CN1CC2=C(NC(=S)NC2c2ccccc2)/C(=C/c2ccccc2)C1` (stereo not given): the TGI in the assay with SK-OV-3 ovarian was 61.8 µM; in the assay with SK-MEL-28 melanoma, 94.3 µM; in the assay with SNB-19 CNS, above 100 µM; in the assay on HCC-2998 colon it was above 100 µM; in the assay with OVCAR-8 ovarian, above 10 µM; with MCF7 breast it was above 100 µM. Moreover, the TGI with MDA-MB-435, with A498 renal, in the assay on OVCAR-3 ovarian and in the assay on A549 NSCLC was above 100 µM each time.
With `CC(C)C(C/C=C1\CC(CO)(COC(=O)C2CCCCC2)OC1=O)C(C)C` (stereo not given), the TGI is above 100 µM in the assay on SK-OV-3 ovarian; 33.8 µM in the assay with SK-MEL-28 melanoma; 31.4 µM with SNB-19 CNS; 65.1 µM in the assay on HCC-2998 colon; 35.8 µM with OVCAR-8 ovarian; 39 µM in the assay with MCF7 breast. For the same molecule, the TGI in the assay with MDA-MB-435 is above 100 µM; with A498 renal, above 100 µM; in the assay on OVCAR-3 ovarian, 35.7 µM; with A549 NSCLC, 32 µM.
For the molecule `NCC(O)CSCc1ccc(Cl)cc1` (stereo not given), the TGI in the assay with SK-OV-3 ovarian, in the assay on SK-MEL-28 melanoma, in the assay on SNB-19 CNS, with HCC-2998 colon, in the assay with OVCAR-8 ovarian and with MCF7 breast was above 100 µM in each case. Also, the TGI in the assay with MDA-MB-435, in the assay with A498 renal, in the assay on OVCAR-3 ovarian and with A549 NSCLC was above 100 µM each time.
Consider `CC(C)=CCNc1nc(Cl)nc2nc[nH]c12`, for which the TGI was 46 µM in the assay on SK-OV-3 ovarian; above 100 µM in the assay with SK-MEL-28 melanoma; above 100 µM in the assay with SNB-19 CNS; above 100 µM in the assay with HCC-2998 colon; above 100 µM with OVCAR-8 ovarian; above 100 µM in the assay with MCF7 breast. In addition, the TGI in the assay with MDA-MB-435, in the assay on A498 renal, in the assay with OVCAR-3 ovarian and with A549 NSCLC was above 100 µM each time.
Turning to `CCOP(=O)(OCC)/C(=C/c1cccs1)CC(C)=O`, the TGI in the assay on SK-OV-3 ovarian, with SK-MEL-28 melanoma, with SNB-19 CNS, with HCC-2998 colon, in the assay with OVCAR-8 ovarian and in the assay with MCF7 breast was above 100 µM in each case. In addition, the TGI in the assay on MDA-MB-435, in the assay with A498 renal, in the assay on OVCAR-3 ovarian and in the assay with A549 NSCLC was above 100 µM each time.
`CC(C)(C)OC(=O)NCC(CNC(=O)OC(C)(C)C)c1nc(C(N)=O)cs1`: the TGI in the assay with SK-OV-3 ovarian, in the assay with SK-MEL-28 melanoma, in the assay on SNB-19 CNS, with HCC-2998 colon, with OVCAR-8 ovarian and in the assay on MCF7 breast was above 100 µM throughout. Further, the TGI in the assay with MDA-MB-435, with A498 renal, in the assay on OVCAR-3 ovarian and with A549 NSCLC was above 100 µM in each case.
